Test results: PMC10444021, “Design and synthesis of new spirooxindole candidates and their selenium nanoparticles as potential dual Topo I/II inhibitors, DNA intercalators, and apoptotic inducers” (Journal of Enzyme Inhibition and Medicinal Chemistry, 2023)
≈ marks a conversion by molar mass, not a printed value.

Key:
[1] = system: A-549; experiment: MTT cytotoxicity, A-549; format: cell-based; details: Homo sapiens, A549, mean ± SD
Description: (§1) The cytotoxic activities of the constructed members were assessed via the reported MTT method[49–52] (Supporting information).
(§2) The cytotoxic screening was performed using the MTT assay. […] Besides, the HCT-116 one was sensitive to only two samples, while the MCF7 was sensitive to one sample only. Two standard cytotoxic drugs: Dox and 5-fluorouracil (5-FU) were also applied on the same used cancer cell lines as references.

[2] = system: Caco-2; experiment: MTT cytotoxicity, Caco-2; format: cell-based; details: Homo sapiens, mean ± SD
Description: as §1, §2

[3] = system: HCT-116; experiment: MTT cytotoxicity, HCT-116; format: cell-based; details: Homo sapiens, mean ± SD
Description: as §1, §2

[4] = system: MCF7; experiment: MTT cytotoxicity, MCF7; format: cell-based; details: Homo sapiens, mean ± SD
Description: as §1, §2

[5] = Cytotoxic effects on normal bone marrow cells; format: cell-based, mice; details: mouse, mean ± SD
Description: as §1
The dose–response curves for the nanoform on each cell line are shown in the Supporting information, and the respective IC50s are shown in Table 3. The most promising cytotoxic samples were further investigated for their cytotoxic effects on normal mice bone marrow cells. The overall trending results were increasing the proliferation of the bone marrow cells at high concentrations of the samples, especially the 5b NPs nanoform sample, which reached up to 200% compared to the untreated cells. The dose–response curves on the bone marrow cells are represented in the Supporting information.

[6] = system: HepG2; experiment: MTT cytotoxicity, HepG2; format: cell-based; details: Homo sapiens, mean ± SD
Description: as §1, §2

[7] = system: Topo II; experiment: Topo II inhibitory assay; format: biochemical
Description: (§3) The tested members were subjected to Topo I inhibitory activity evaluation using the previously reported method. While the Topo II inhibitory assay was done according to the method described by Patra et al.[55] (Supporting information).
(§4) Thus, compounds 5b and 7d in addition to their nano complexes 5b NPs and 7d NPs were evaluated for their enzyme inhibitory effects.

[8] = system: DNA; experiment: DNA intercalation assay (linear DNA formation); format: biochemical; details: even at low concentrations; gel
Description: The reported procedure by Atwal et al. was our guide to test the DNA intercalating ability of our candidates[56] (Supporting information).
The ability of the designed members to intercalate onto the DNA molecules and increase the levels of Topo I–DNA as well as Topo II-DNA cleavage complexes by stabilising the enzymes–DNA covalent complexes were also assayed. Thus, the amount of linear DNA formed by compounds 5b and 7d, in addition to their nanoforms 5b NPs and 7d NPs, was measured. […] As so, the designed congeners were then considered promising DNA intercalating members (Figure 11).

[9] = biological target: T1, Topo I (Homo sapiens, UniProt P11387); experiment: Topo I inhibitory assay; format: biochemical
T1 sequence (P11387 1-765): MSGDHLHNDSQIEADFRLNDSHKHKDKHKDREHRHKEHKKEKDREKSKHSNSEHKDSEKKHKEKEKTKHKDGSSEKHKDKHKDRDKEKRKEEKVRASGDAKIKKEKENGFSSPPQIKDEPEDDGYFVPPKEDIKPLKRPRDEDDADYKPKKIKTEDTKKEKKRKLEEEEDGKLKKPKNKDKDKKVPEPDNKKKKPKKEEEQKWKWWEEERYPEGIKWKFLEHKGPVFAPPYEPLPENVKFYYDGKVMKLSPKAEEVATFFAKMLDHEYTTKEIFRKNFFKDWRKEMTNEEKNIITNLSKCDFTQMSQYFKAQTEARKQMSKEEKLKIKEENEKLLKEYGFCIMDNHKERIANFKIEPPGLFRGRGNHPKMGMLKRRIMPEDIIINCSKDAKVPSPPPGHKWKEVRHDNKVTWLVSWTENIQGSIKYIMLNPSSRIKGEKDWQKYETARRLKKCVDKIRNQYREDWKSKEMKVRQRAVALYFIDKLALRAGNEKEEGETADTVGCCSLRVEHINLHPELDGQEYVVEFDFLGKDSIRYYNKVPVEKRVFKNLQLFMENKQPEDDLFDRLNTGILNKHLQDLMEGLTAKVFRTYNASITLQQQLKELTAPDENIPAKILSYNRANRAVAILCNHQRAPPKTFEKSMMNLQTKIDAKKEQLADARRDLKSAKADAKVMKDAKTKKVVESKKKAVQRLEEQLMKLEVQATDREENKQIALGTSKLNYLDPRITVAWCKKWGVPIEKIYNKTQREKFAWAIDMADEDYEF
Description: as §3, §4

Compound	melting point	IC50 [7]	IC50 [9]	IC50 [1]	IC50 [2]	IC50 [3]	IC50 [4]	IC50 [5]	IC50 [6]	formation of linear DNA [8]
CCn1c2c(c(=O)[nH]c1=O)C1(C(=O)Nc3ccccc31)c1c(n(CC)c(=O)[nH]c1=O)N2 [Compound 3, 1′,9′-Diethyl-1′H-spiro[indoline-3,5′-pyrido[2,3-d:6,5-d′]dipyrimidine]-2,2′,4′,6′,8′(3′H,7′H,9′H,10′H)-pentaone]	> 300 °C			291 ± 16.4 µg/mL (≈ 689 µM)	259 ± 9.4 µg/mL (≈ 614 µM)					
O=c1[nH]cc(F)c(=O)[nH]1 [Compound 5-FU, 5-fluorouracil, reference compound]				1.1 ± 0.1 µg/mL (≈ 8.46 µM)	4.4 ± 0.3 µg/mL (≈ 33.8 µM)	76.3 ± 6.8 µg/mL (≈ 587 µM)	39.3 ± 2.9 µg/mL (≈ 302 µM)	103 ± 9.8 µg/mL (≈ 792 µM)	103 ± 9.8 µg/mL (≈ 792 µM)	
Cn1c2c(c(=O)[nH]c1=O)C1(C(=O)Nc3ccc([N+](=O)[O-])cc31)c1c(n(C)c(=O)[nH]c1=O)N2 [Compound 5a, 1′,9′-Dimethyl-5-nitro-1′H-spiro[indoline-3,5′-pyrido[2,3-d:6,5-d′]dipyrimidine]-2,2′,4′,6′,8′(3′H,7′H,9′H,10′H)-pentaone]	> 300 °C				207 ± 19.4 µg/mL (≈ 471 µM)				563 ± 25.5 µg/mL (≈ 1280 µM)	
CCn1c2c(c(=O)[nH]c1=O)C1(C(=O)Nc3ccc([N+](=O)[O-])cc31)c1c(n(CC)c(=O)[nH]c1=O)N2 [Compound 5b, 1′,9′-Diethyl-5-nitro-1′H-spiro[indoline-3,5′-pyrido[2,3-d:6,5-d′]dipyrimidine]-2,2′,4′,6′,8′(3′H,7′H,9′H,10′H)-pentaone]		4.47 µM	0.651 µM		35.2 ± 4.1 µg/mL (≈ 75.3 µM)				114 ± 10.1 µg/mL (≈ 243 µM)	considerable formation of linear DNA
Cn1c2c(c(=O)[nH]c1=S)C1(C(=O)Nc3ccc([N+](=O)[O-])cc31)c1c(n(C)c(=S)[nH]c1=O)N2 [Compound 5c, 1′,9′-Dimethyl-5-nitro-2′,8′-dithioxo-2′,3′,8′,9′-tetrahydro-1′H-spiro[indoline-3,5′-pyrido[2,3-d:6,5-d′]dipyrimidine]-2,4′,6′(7′H,10′H)-trione]	> 300 °C			525 ± 50.6 µg/mL (≈ 1110 µM)	247 ± 12.5 µg/mL (≈ 525 µM)	186 ± 19.4 µg/mL (≈ 394 µM)			250 ± 19.3 µg/mL (≈ 531 µM)	
O=C1Nc2ccc([N+](=O)[O-])cc2C12c1c(n(Cc3ccccc3)c(=O)[nH]c1=O)Nc1c2c(=O)[nH]c(=O)n1Cc1ccccc1 [Compound 5d, 1′,9′-Dibenzyl-5-nitro-1′H-spiro[indoline-3,5′-pyrido[2,3-d:6,5-d′]dipyrimidine]-2,2′,4′,6′,8′(3′H,7′H,9′H,10′H)-pentaone]	> 300 °C			279 ± 18.9 µg/mL (≈ 472 µM)	108 ± 10 µg/mL (≈ 183 µM)				422 ± 22.8 µg/mL (≈ 713 µM)	
O=C1Nc2ccc([N+](=O)[O-])cc2C12c1c([nH]c(=O)[nH]c1=O)Nc1[nH]c(=O)[nH]c(=O)c12 [Compound 5e, 5-Nitro-1′H-spiro[indoline-3,5′-pyrido[2,3-d:6,5-d′]dipyrimidine]-2,2′,4′,6′,8′(3′H,7′H,9′H,10′H)-pentaone]	> 300 °C				233 ± 19.2 µg/mL (≈ 566 µM)				147 ± 10.5 µg/mL (≈ 357 µM)	
Cn1c2c(c(=O)[nH]c1=O)C1(C(=O)Nc3ccc(Cl)cc31)c1c(n(C)c(=O)[nH]c1=O)N2 [Compound 7a, 5-Chloro-1′,9′-dimethyl-1′H-spiro[indoline-3,5′-pyrido[2,3-d:6,5-d′]dipyrimidine]-2,2′,4′, 6′,8′(3′H,7′H,9′H,10′H)-pentaone]				50.1 ± 5.9 µg/mL (≈ 117 µM)	113 ± 10.4 µg/mL (≈ 263 µM)				120 ± 9.2 µg/mL (≈ 281 µM)	
O=C1Nc2ccc(Cl)cc2C12c1c([nH]c(=O)[nH]c1=O)Nc1[nH]c(=O)[nH]c(=O)c12 [Compound 7e, 5-Chloro-1′H-spiro[indoline-3,5′-pyrido[2,3-d:6,5-d′]dipyrimidine]-2,2′,4′,6′,8′(3′H,7′H,-9′H,10′H)-pentaone]					472 ± 23.6 µg/mL (≈ 1180 µM)	435 ± 39.5 µg/mL (≈ 1080 µM)			89.7 ± 6.5 µg/mL (≈ 224 µM)	
COc1cccc2c1C(=O)c1c(O)c3c(c(O)c1C2=O)C[C@@](O)(C(=O)CO)C[C@@H]3O[C@H]1C[C@H](N)[C@H](O)[C@H](C)O1 [Dox, doxorubicin, reference compound]				0.04 ± 0.003 µg/mL (≈ 0.0736 µM)	3.7 ± 0.2 µg/mL (≈ 6.81 µM)	1.1 ± 0.1 µg/mL (≈ 2.02 µM)	5.9 ± 0.5 µg/mL (≈ 10.9 µM)	0.3 ± 0.01 µg/mL (≈ 0.552 µM)	0.3 ± 0.01 µg/mL (≈ 0.552 µM)	

More lines, main results first:

melting point	IC50 [7]	IC50 [9]	Compound	IC50 [1]	IC50 [2]	IC50 [3]	IC50 [4]	IC50 [5]	IC50 [6]	formation of linear DNA [8]
> 300 °C			CCn1c2c(c(=O)[nH]c1=O)C1(C(=O)Nc3ccc(Cl)cc31)c1c(n(CC)c(=O)[nH]c1=O)N2 [Compound 7b, 5-Chloro-1′,9′-diethyl-1′H-spiro[indoline-3,5′-pyrido[2,3-d:6,5-d′]dipyrimidine]-2,2′,4′, 6′,8′(3′H,7′H,9′H,10′H)-pentaone]				171 ± 22.8 µg/mL (≈ 374 µM)			
> 300 °C			Cn1c2c(c(=O)[nH]c1=S)C1(C(=O)Nc3ccc(Cl)cc31)c1c(n(C)c(=S)[nH]c1=O)N2 [Compound 7c, 5-Chloro-1′,9′-dimethyl-2′,8′-dithioxo-2′,3′,8′,9′-tetrahydro-1′H-spiro[indoline-3,5′-pyrido [2,3-d:6,5-d′]dipyrimidine]-2,4′,6′(7′H,10′H)-trione]							
	2.66 µM	0.419 µM	O=C1Nc2ccc(Cl)cc2C12c1c(n(Cc3ccccc3)c(=O)[nH]c1=O)Nc1c2c(=O)[nH]c(=O)n1Cc1ccccc1 [Compound 7d, 1′,9′-Dibenzyl-5-chloro-1′H-spiro[indoline-3,5′-pyrido[2,3-d:6,5-d′]dipyrimidine]-2,2′,4′, 6′,8′(3′H,7′H,9′H,10′H)-pentaone]	329 ± 12.5 µg/mL (≈ 566 µM)					91.4 ± 11.3 µg/mL (≈ 157 µM)	considerable formation of linear DNA
> 300 °C			Cn1c2c(c(=O)[nH]c1=O)C1(C(=O)Nc3ccc(F)cc31)c1c(n(C)c(=O)[nH]c1=O)N2 [Compound 9b, 5-Fluoro-1′,9′-dimethyl-1′H-spiro[indoline-3,5′-pyrido[2,3-d:6,5-d′]dipyrimidine]-2,2′,4′,6′,8′(3′H,7′H,9′H,10′H)-pentaone]	293 ± 15.4 µg/mL (≈ 710 µM)	492 ± 40.4 µg/mL (≈ 1190 µM)				86.4 ± 7.4 µg/mL (≈ 210 µM)	
